{
  "source": "paper PMC7998974",
  "about": "“Enhanced Efficacy of Thiosemicarbazone Derivative-Encapsulated Fibrin Liposomes against Candidiasis in Murine Model” (Pharmaceutics, 2021)",
  "key": {"C. albicans [1]": {"tested_on": "C. albicans", "assay": "Survival of C. albicans-infected mice", "assay_type": "in vivo, Swiss albino mice", "settings": "2 mg 2C/kg b.w. for five days", "description": "The antifungal activity of 2C-FL was determined in a mouse model with C. albicans infection. For infection, healthy mice were infected with an inoculum of 100 µL saline containing 5 × 10^5 CFU of C. albicans per mouse by an intravenous route in the lateral tail vein. One day post-infection, the mice were randomly distributed into six groups (n = 10/group) and treated with formulations (2 mg 2C/kg b.w.) for five days. […] A simultaneous set of experiments was conducted for the survival studies.\nThe antifungal ability of 2C-FL was also determined by evaluating the survival rate of the treated mice. The study was conducted for 60 days, during which mice were monitored for mortality twice each day and results were scored."}, "C. albicans (ATCC 18804)": {"tested_on": "C. albicans (ATCC 18804)", "assay": "Minimum inhibitory concentration by broth microdilution", "assay_type": "cell-based", "settings": "Candida albicans, ATCC18804, 50% inhibition of growth, RPMI 1640, 24 h, 37 °C, formulation weight for formulations"}, "[2]": {"tested_on": "Candida albicans ATCC 66027, Candida spp. 12,810 (blood) and Candida spp.", "parameters": "method as in PMID 24513049", "settings": "in vitro, series of substituted thiosemicarbazide derivatives; cited from earlier work"}, "[3]": {"assay": "Erythrocyte lysis test (in vitro toxicity)", "assay_type": "cell-based", "settings": "rabbit erythrocytes (0.2% RBC suspension), pH 7.4, dose of 10 mg/L, 37 °C, read-out: hemolytic ability to erythrocytes (percent hemolysis)", "description": "The in vitro toxicity of free 2C and 2C-FL was determined using the previously published method of erythrocyte lysis test. Briefly, blood samples from a healthy rabbit were collected in an anticoagulant solution. The samples were centrifuged at 4 °C, the pellet containing erythrocytes was washed with PBS (pH 7.4), and, finally, 50% hematocrit was prepared. […] The hemolytic effects were evaluated by visible spectroscopy at 576 nm, and percent hemolysis was calculated. The 100% hemolytic ability of Triton X-100 was taken as the positive control. Results are expressed as the mean ± SD of three independent experiments."}, "C. albicans [4]": {"tested_on": "C. albicans", "assay": "Annexin-V assay for detecting apoptosis", "assay_type": "cell-based, Candida albicans", "settings": "annexin V-FITC/PI flow cytometry", "description": "The therapeutic effect of 2C-FL against fungal infection was done by detecting the presence of apoptosis markers in C. albicans, as mentioned by Tang et al.. Briefly, 5 × 10^6 colony-forming units (CFU)/mL of C. albicans were grown at 37 °C for 5 h in the RPMI 1640 medium containing 2C-L and 2C-FL, separately. The culture was further incubated for 48 h at 37 °C with shaking at 180 rpm. After harvesting and washing with PBS (pH 7.4), the fungus was digested with a lysis buffer. After digestion, apoptotic cell death was analyzed using an annexin V assay as per the published protocol. The fungal cell suspension was incubated with annexin V-FITC (50 µg/mL) and propidium iodide (PI; 200 µg/mL) in dark for 20 min at room temperature. The apoptotic and necrotic cells were scored by flow cytometry (MACSQuant, Germany)."}, "[5]": {"parameters": "method as in PMID 26457700", "settings": "solubility checked earlier; cited from earlier work"}, "[6]": {"assay": "Determination of 2C dose (LD50) in healthy mice", "assay_type": "in vivo", "description": "The dose of 2C for the antifungal treatment in vivo was determined according to the already published report. Five groups (n = 5/group) comprising healthy mice were intraperitoneally injected with different doses of 2C. Mice of the sixth group (control group) were intraperitoneally injected with PBS."}, "[7]": {"assay": "Histopathological examination of liver and kidney sections", "assay_type": "in vivo", "settings": "healthy mice, H&E, 200X", "description": "(§1) For in vivo toxicity, renal and hepatic toxicities were evaluated in healthy mice. According to the method of Khan et al., [39], a three-dose regimen of 400 µg formulation/dose/mouse was intraperitoneally given on the 1st, 3rd, and 5th days. Blood samples from different treatment groups were taken as pre-dose (a day before the administration of the formulation) and post-dose (the 6th day of the administration of the formulation). The levels of serum creatinine, ALT, and total bilirubin were evaluated by employing a commercial detection kit. Results are expressed as the mean ± SD of three independent experiments. Moreover, the extent of toxicity of 2C-FL was determined on liver and kidney histopathology.\nBriefly, the fixed tissues were dehydrated and embedded in paraffin wax. […] Next, paraffin from the sections was removed by three consecutive washings in xylol. The sections were then […] in series of alcohol grades (70–100%), and, finally, the sections were stained with hematoxylin and eosin and visualized under a light microscope (Olympus CLX 41) at 200X magnification."}, "[8]": {"assay": "In vivo renal and hepatic toxicity (serum creatinine, ALT, total bilirubin)", "settings": "healthy mice", "description": "as §1"}, "non-cancer cell lines": {"tested_on": "non-cancer cell lines", "parameters": "method as in PMID 24513049", "settings": "cited from earlier work"}, "[9]": {"assay": "Pharmacokinetics in healthy mice", "assay_type": "in vivo", "settings": "single dose, formulations 5 mg/kg b.w., free 2C 1 mg/kg b.w.", "description": "For pharmacokinetic studies, 2C-L and 2C-FL were administered to healthy mice. A single dose of 5 mg/kg body weight (b.w.) of the formulations was injected via the tail vein. Free 2C was administered in a single dose comprising 1 mg/kg b.w. Blood aliquots were collected using a non-mortality model at different periods, and serum was centrifuged out. […] Results are reported as the mean ± SD of three independent experiments."}, "[10]": {"settings": "serum, post-dose, 400 µg formulation/dose/mouse i.p. on days 1, 3, 5"}},
  "data": [
    {"smiles": "O=C(NNC(=S)Nc1ccc(Cl)cc1)c1ccncc1", "note": "[2C]", "values": [
      {"measurement": "survival of treated mice till the 30th day", "setting": "C. albicans [1]", "result": 30, "unit": "%"},
      {"measurement": "MIC", "setting": "C. albicans (ATCC 18804)", "result": "0.46 ± 0.05", "unit": "µg/mL"},
      {"measurement": "anti-Candida activity within the series", "setting": "[2]", "result": "most effective one"},
      {"measurement": "hemolysis at 1 h, 10 mg/L", "setting": "[3]", "result": 100, "unit": "%"},
      {"measurement": "necrosis", "setting": "C. albicans [4]", "result": "prominent increase"},
      {"measurement": "solubility in water", "setting": "[5]", "result": "insoluble in water"},
      {"measurement": "LD50", "setting": "[6]; healthy mice, intraperitoneal, mortality after 24 h", "result": 20, "unit": "mg/kg b.w."},
      {"measurement": "mortality at one-tenth of the LD50", "setting": "[6]; mice, 2 mg/kg b.w., three weeks of treatment", "result": "did not show any mortality"},
      {"measurement": "toxic effect on kidney histopathology", "setting": "[7]", "result": "prominent toxicity"},
      {"measurement": "toxic effect on liver histopathology", "setting": "[7]", "result": "focal lytic necrosis and enlarged sinusoids"},
      {"measurement": "ALT, Day 6", "setting": "[8]; [10]", "result": "45.1 ± 8.5", "unit": "U/I"},
      {"measurement": "Creatinine, Day 6", "setting": "[8]; [10]", "result": "0.34 ± 0.05", "unit": "mg%"},
      {"measurement": "Total Bilirubin, Day 6", "setting": "[8]; [10]", "result": "0.21 ± 0.07"},
      {"measurement": "ALT, Day 0", "setting": "[8]; serum, pre-dose", "result": "40.9 ± 7.3", "unit": "U/I"},
      {"measurement": "Creatinine, Day 0", "setting": "[8]; serum, pre-dose", "result": "0.29 ± 0.06", "unit": "mg%"},
      {"measurement": "Total Bilirubin, Day 0", "setting": "[8]; serum, pre-dose", "result": "0.15 ± 0.04"},
      {"measurement": "change in serum creatinine, ALT and bilirubin levels versus healthy control", "setting": "[8]; sixth day", "result": "showed an increase"},
      {"measurement": "toxicity to non-cancer cell lines", "setting": "non-cancer cell lines", "result": "minimal toxicity"},
      {"measurement": "Cmax", "setting": "[9]; Swiss albino, mouse, plasma, intravenous", "result": "1400 ± 250", "unit": "ng/mL"},
      {"measurement": "clearance", "setting": "[9]; Swiss albino, mouse, plasma, intravenous, read-out: CL (plasma clearance) (converted)", "result": 1.28, "unit": "mL/min"},
      {"measurement": "AUC0–24", "setting": "[9]", "result": "0.91 ± 0.17", "unit": "µg/mL x h"}
    ]},
    {"smiles": "CCC(C)n1ncn(-c2ccc(N3CCN(c4ccc(OCC5COC(Cn6cncn6)(c6ccc(Cl)cc6Cl)O5)cc4)CC3)cc2)c1=O", "note": "(stereo not shown) [Itraconazole, itraconazole, reference compound]", "values": [
      {"measurement": "MIC", "setting": "C. albicans (ATCC 18804)", "result": "1.26 ± 0.71", "unit": "µg/mL"}
    ]}
  ]
}
